The values that follow come from patent US20170368089A1, “COMPOSITION FOR PREVENTING OR TREATING COLITIS” (UNIVERSITY-INDUSTRY COOPERATION GROUP OF KYUNG HEE …, priority 2012, published 2017).

In one assay the test system is IL-6. The experiment in a line: IL-6 expression in colon tissue (ELISA), TNBS colitis, second experiment. In kind it is in vivo, ICR male mice. The note with it: Table 9, extract-based samples, TNBS-treated mice, 10 mg/kg orally, 3 days. On the procedure: Among the experimental groups, one group was set as a normal group, and for the experimental animals in other groups, colitis was induced with 2,4,6-trinitrobenzenesulfonic acid (TNBS). In detail, after lightly anesthetizing the experimental animals with ether, 0.1 ml of the solution prepared by mixing […] of 2,4,6-Trinitrobenzene sulfonic acid (NBS) solution with 50% ethanol was injected into the colon through the anus using a syringe having 1 ml volume and oval point, respectively; and then, the syringe was vertically picked up, and then, maintained for 30 seconds to induce the inflammation. Meanwhile, 0.1 ml of normal saline solution was orally administered to the normal group. Since then, from the next day, the sample dissolved in normal saline solution was orally administered in the volume that was decided in advance one time a day for 3 days. […]
250 μl of RIPA butter including protease inhibitor cocktail was added to 100 mg of the colon tissue of experimental animal, and then, the colon tissue was homogenized. […] While the supernatant was stored at −80° C., the expression amounts of IL-1 beta, IL-6, and TNF-alpha were measured using a 96-well ELISA plate kits (Pierce Biotechology, Inc., Rockford, Ill., USA).
A general note: ELISA stands for enzyme-linked immunosorbent assay.

For assay [1], the system named is model animal with acute colitis induced by TNBS. The experiment in a line: Acute colitis induced by TNBS in mice, appearance analysis of colon (colon length, macroscopic score), first experiment. In kind it is in vivo, ICR male mice. The settings on record: Table 3 (group 2); TNBS-treated mice, 10 mg/kg orally, 3 days. On the procedure:
4-week ICR male mice (24 to 27 g) were purchased from OrientBio. All the mice were bred under the controlled environmental conditions of 50±10% of humidity and 25±2° C. of temperature, and the lighting was repeatedly on for 12 hours and off for 12 hours. A feed for a standard experiment (Samyang, Korea) was used as a feed, and water was freely taken. For all the experiments, one group was 6 mice. […] Meanwhile, 0.1 ml of normal saline solution was orally administered to the normal group. Since then, from the next day, the sample dissolved in normal saline solution was orally administered in the volume that was decided in advance one time a day for 3 days. At the next day after completing the sample administration, the experimental animals were suffocated to death with carbon dioxide, the colon from appendix to the region just before the anus was removed from the colon region. The scores about the removed colons were estimated by observing the appearances and the lengths of the colons according to the following criteria (Hollenbach, and the like, the criteria about the level of colon in 2005) as listed in Table 1. […] In addition, some of the content in the colon was collected in order to analyze the rumen microorganisms, and then, was stored in a freezer of −80° C. From the tissue of colon, the content in the colon was completely removed and then the tissue of colon was washed with normal saline solution. Since then, some of the tissue was fixed with 4% formaldehyde fixing solution in order to be used as a sample for a histopathological examination, and the rest was stored in a freezer of −80° C. for a molecular biological analysis.

The compound `Nc1ccc(O)c(C(=O)O)c1` [mesalazine, Mesalazine] registered an IL-6 conc. in the assay with IL-6 of 1.32 ± 0.11 pg/mg. Besides, the Colon length in assay [1] is reported as 7.1 ± 0.46 cm.
